Where “and” joins values, the source holds several entries; their conditions need not be identical. Equal entries are not always repeated.
Tested on: 832693-133-R-J1-PDC multi-cell spheroids, viability
Assay: Anticancer human tumor 832693-133-R-J1-PDC patient-derived head and neck squamous carcinoma cell line growth inhibition [IpAb]
Settings: for viability, T/C: stronger effect = lower value; active means viability on the fitted dose curve at most 10% of control; inactive means the rest
Text: Combinatorial screen of targeted agents with ipatasertib and abemaciclib in multi-cell type tumor spheroids
A high-throughput screen of multi-cell type tumor spheroids was designed to identify active combinations of targeted small molecules and ipatasertib or abemaciclib. Complex spheroids include a stromal component modeled by human endothelial cells (HUVEC) and fibroblasts modeled by human mesenchymal stem cells (MSCs). The concentration ranges selected for each drug and investigational agent were based upon clinically achievable concentrations if the clinical Cmax of the agent was known.
Compounds. The drugs and investigational agents: ipatasertib (NSC767898), abemaciclib(NSC768073), selumetinib (NSC741078), trametinib (758246), adavosertib (NSC754352), everolimus (NSC733504), sapanisertib (NSC764658), vemurafenib (NSC761431), venetoclax (NSC766270), copanlisib (NSC809693), apelisib (NSC765974), palbociblib (NSC758247), vemurafenib (NSC761431), dabrafenib (NSC764134), ravoxertinib (NSC781343), BMS-387032 (NSC767048), sotorasib (NSC818433), talazoparib (NSC767125) and afursertib (NSC778305), were obtained from the National Cancer Institute (NCI) Developmental Therapeutics Program Chemical Repository. The FDA-approved anticancer drug set is available from the NCI Developmental Therapeutics Program. […] The stock solutions were prepared in dimethyl sulfoxide (DMSO, Sigma-Aldrich, St. Louis, MO, cat. D2650) at 800-fold the tested concentration and stored at -70 degrees C prior to their use. All drugs and investigational agents were tested over a range starting from a high concentration at or near the clinical Cmax and decreasing in half-log increments. If the clinical Cmax for an agent had not been determined, the highest concentration tested was 10 microM.
NCI60 Cell Culture. NCI60 cell lines were obtained from the NCI Developmental Therapeutics Program Tumor Repository. For each lot of cells, the Repository performed Applied Biosystems AmpFLSTR Identifiler testing with PCR amplification to confirm consistency with the published Identifier STR profile for each cell line. Cells were kept in continuous culture for no more than 20 passages. The optimal seeding densities for each of the cell lines at each time point assessed were determined prior to performing the concentration response studies. Briefly, the NCI60 human tumor lines were grown as monolayers in RPMI 1640 medium supplemented with 10% FBS and 2 mmol/L L-glutamine.
An additional 9 lines were from the NCI60 cell line panel including MDA-MB-231 breast carcinoma, MDA-MB-468 breast carcinoma, MCF7 breast carcinoma, Hs578T breast carcinoma, MALME-3M melanoma, SK-MEL-2 melanoma, SK-OV-3 ovarian carcinoma, DU-145 prostate carcinoma, PC-3 prostate carcinoma, all cell lines along with major genetic alterations are listed on Table 2. Pooled donor human umbilical vein endothelial cells (HUVEC, Lonza, cat. CC-2519) and human mesenchymal stem cells (hMSC, Lonza, cat. PT-2501) were purchased from Lonza (Walkersville, MD).
PDMR cell lines were grown in complete medium (DC medium): Dulbecco's modified Eagle's medium (DMEM)/F12 supplemented with 5% fetal bovine serum (FBS), 2 mM L-glutamine, 100 U/mL penicillin and 100 µg/ml streptomycin, 0.4 µg/ml hydrocortisone, 10 ng/ml epidermal growth factor (EGF) recombinant human protein, 24 µg/mL adenine, and 0.1 mg/mL primocin. During culture from frozen stock vials, PDMR cells were cultured in the same medium containing 10 µM Y-27632 (see Table 3). The PDCs were cultured in complete DMEM/F12 media without 10 microM Y-27632 dihydrochloride for at least two passages prior to the screen. The pooled donor HUVEC and hMSC were cultured in endothelial cell growth medium 2 (PromoCell, Heidelberg, Germany, cat. C-22011) and mesenchymal stem cell growth medium 2 (PromoCell, cat. C-28009), respectively. For all experiments, HUVEC and hMSC were used at passages </=5.
[…]

[1] = curve of first compound, second compound 0.01 µM
[2] = curve of first compound, second compound 0.0316 µM
[3] = curve of first compound, second compound 0.1 µM
[4] = curve of first compound, second compound 0.316 µM
[5] = curve of first compound, second compound 1 µM
[6] = second compound 0.01 µM, first compound 0.0316 µM
[7] = second compound 0.01 µM, first compound 0.1 µM
[8] = second compound 0.0316 µM, first compound 0.0316 µM
[9] = second compound 0.0316 µM, first compound 0.1 µM
[10] = second compound 0.1 µM, first compound 0.0316 µM
[11] = second compound 0.1 µM, first compound 0.1 µM
[12] = second compound 0.316 µM, first compound 0.0316 µM
[13] = second compound 0.316 µM, first compound 0.1 µM
[14] = second compound 1 µM, first compound 0.0316 µM
[15] = second compound 1 µM, first compound 0.1 µM
[16] = second compound 0.1 µM, first compound 0.316 µM
[17] = second compound 0.1 µM, first compound 1 µM
[18] = second compound 0.1 µM, first compound 3.16 µM
[19] = second compound 0.1 µM, first compound 10 µM
[20] = second compound 0.316 µM, first compound 0.316 µM
[21] = second compound 0.316 µM, first compound 1 µM
[22] = second compound 0.316 µM, first compound 3.16 µM
[23] = second compound 0.316 µM, first compound 10 µM
[24] = second compound 1 µM, first compound 0.316 µM
[25] = second compound 1 µM, first compound 1 µM
[26] = second compound 1 µM, first compound 3.16 µM
[27] = second compound 1 µM, first compound 10 µM
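Further: spheroids exposed to the drugs for one week before the viability readout.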
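Wherever viability, T/C is given: 100% = DMSO vehicle control wells.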

CC(C)n1nc(-c2ccc3oc(N)nc3c2)c2c(N)ncnc21 + CCN1CCN(Cc2ccc(Nc3ncc(F)c(-c4cc(F)c5nc(C)n(C(C)C)c5c4)n3)nc2)CC1
inactive: viability, T/C (second compound 0.01 µM, first compound 0.000316 µM) 83% | viability, T/C (second compound 0.01 µM, first compound 0.001 µM) 82.8% | viability, T/C (second compound 0.01 µM, first compound 0.00316 µM) 73.5% | viability, T/C (second compound 0.01 µM, first compound 0.01 µM) 77.8% | viability, T/C [6] 50.6% | viability, T/C [7] 53.2% | viability, T/C (second compound 0.0316 µM, first compound 0.000316 µM) 71.8% | viability, T/C (second compound 0.0316 µM, first compound 0.001 µM) 73.6% | viability, T/C (second compound 0.0316 µM, first compound 0.00316 µM) 64% | viability, T/C (second compound 0.0316 µM, first compound 0.01 µM) 61% | viability, T/C [8] 52.4% | viability, T/C [9] 38.4% | viability, T/C (second compound 0.1 µM, first compound 0.000316 µM) 61% | viability, T/C (second compound 0.1 µM, first compound 0.001 µM) 56% | viability, T/C (second compound 0.1 µM, first compound 0.00316 µM) 52.7% | viability, T/C (second compound 0.1 µM, first compound 0.01 µM) 53% | viability, T/C [10] 43% | viability, T/C [11] 34.5% | viability, T/C (second compound 0.316 µM, first compound 0.000316 µM) 50.6% | viability, T/C (second compound 0.316 µM, first compound 0.001 µM) 55.7% | viability, T/C (second compound 0.316 µM, first compound 0.00316 µM) 49% | viability, T/C (second compound 0.316 µM, first compound 0.01 µM) 42.3% | viability, T/C [12] 42.9% | viability, T/C [13] 34.8% | viability, T/C (second compound 1 µM, first compound 0.000316 µM) 59.5% | viability, T/C (second compound 1 µM, first compound 0.001 µM) 50.3% | viability, T/C (second compound 1 µM, first compound 0.00316 µM) 41.6% | viability, T/C (second compound 1 µM, first compound 0.01 µM) 38.2% | viability, T/C [14] 39.8% | viability, T/C [15] 38.6%
0.859 nM: IC50 [5]
> 100 nM: IC50 [1]
2.03 nM: IC50 [4]
36.3 nM: IC50 [2]
10.6 nM: IC50 [3]

Cn1ncc(Cl)c1-c1cc(C(=O)NC(CN)Cc2cccc(F)c2)sc1Cl (configuration not stated)
5060 nM and 5130 nM: IC50 (curve of compound)
active: viability, T/C (compound 10 µM) 0.3% and 0.39%
inactive: viability, T/C (compound 0.0316 µM) 99.5% and 99.8% | viability, T/C (compound 0.1 µM) 89.4% and 102% | viability, T/C (compound 0.316 µM) 74.4% and 79.5% | viability, T/C (compound 1 µM) 73.6% and 68.3% | viability, T/C (compound 3.16 µM) 85% and 86%

CCN1CCN(Cc2ccc(Nc3ncc(F)c(-c4cc(F)c5nc(C)n(C(C)C)c5c4)n3)nc2)CC1
inactive: viability, T/C (compound 0.01 µM) 97.5% [middle of 13 runs] | viability, T/C (compound 0.0316 µM) 82.1% [middle of 13 runs] | viability, T/C (compound 0.1 µM) 63.8% [middle of 13 runs] | viability, T/C (compound 0.316 µM) 57.4% [middle of 13 runs] | viability, T/C (compound 1 µM) 59.1% [middle of 13 runs]

Cn1ncc(Cl)c1-c1cc(C(=O)NC(CN)Cc2cccc(F)c2)sc1Cl (configuration not stated) + CCN1CCN(Cc2ccc(Nc3ncc(F)c(-c4cc(F)c5nc(C)n(C(C)C)c5c4)n3)nc2)CC1
inactive: viability, T/C [6] 94.4% | viability, T/C [7] 91.1% | viability, T/C (second compound 0.01 µM, first compound 0.316 µM) 67.5% | viability, T/C (second compound 0.01 µM, first compound 1 µM) 50.2% | viability, T/C (second compound 0.01 µM, first compound 3.16 µM) 73.7% | viability, T/C [8] 79.4% | viability, T/C [9] 70.2% | viability, T/C (second compound 0.0316 µM, first compound 0.316 µM) 61.3% | viability, T/C (second compound 0.0316 µM, first compound 1 µM) 46.6% | viability, T/C (second compound 0.0316 µM, first compound 3.16 µM) 59.9% | viability, T/C [10] 64.4% | viability, T/C [11] 50% | viability, T/C [16] 43.4% | viability, T/C [17] 37.8% | viability, T/C [18] 49.9% | viability, T/C [12] 53.2% | viability, T/C [13] 38.4% | viability, T/C [20] 31.6% | viability, T/C [21] 33.3% | viability, T/C [22] 32.1% | viability, T/C [14] 47.6% | viability, T/C [15] 37.1% | viability, T/C [24] 33.2% | viability, T/C [25] 32.8% | viability, T/C [26] 36%
< 31.6 nM: IC50 [3] | IC50 [4] | IC50 [5]
active: viability, T/C (second compound 0.01 µM, first compound 10 µM) 0.29% | viability, T/C (second compound 0.0316 µM, first compound 10 µM) 0.25% | viability, T/C [19] 0.21% | viability, T/C [23] 0.19% | viability, T/C [27] 0.28%
3210 nM: IC50 [2]
4490 nM: IC50 [1]

Cc1nc(NC(=O)N2CCCC2C(N)=O)sc1-c1ccnc(C(C)(C)C(F)(F)F)c1 (configuration not stated) + CC(C)NCC(C(=O)N1CCN(c2ncnc3c2C(C)CC3O)CC1)c1ccc(Cl)cc1
40.9 nM: IC50 [5]
active: viability, T/C [19] 4.68% | viability, T/C [23] 3.31% | viability, T/C [26] 9.89% | viability, T/C [27] 2.93% | viability, T/C (second compound 3.16 µM, first compound 3.16 µM) 10.7% | viability, T/C (second compound 3.16 µM, first compound 10 µM) 3.55% | viability, T/C (second compound 10 µM, first compound 10 µM) 3.58%
452 nM: IC50 [3]
inactive: viability, T/C [10] 90.3% | viability, T/C [11] 78.8% | viability, T/C [16] 51.3% | viability, T/C [17] 41% | viability, T/C [18] 14.1% | viability, T/C [12] 77.8% | viability, T/C [13] 64.2% | viability, T/C [20] 49% | viability, T/C [21] 23.8% | viability, T/C [22] 12.8% | viability, T/C [14] 52.2% | viability, T/C [15] 41.5% | viability, T/C [24] 26.8% | viability, T/C [25] 16% | viability, T/C (second compound 3.16 µM, first compound 0.0316 µM) 46% | viability, T/C (second compound 3.16 µM, first compound 0.1 µM) 32.8% | viability, T/C (second compound 3.16 µM, first compound 0.316 µM) 24.4% | viability, T/C (second compound 3.16 µM, first compound 1 µM) 16.3% | viability, T/C (second compound 10 µM, first compound 0.0316 µM) 55.6% | viability, T/C (second compound 10 µM, first compound 0.1 µM) 38.4% | viability, T/C (second compound 10 µM, first compound 0.316 µM) 28.6% | viability, T/C (second compound 10 µM, first compound 1 µM) 19.1% | viability, T/C (second compound 10 µM, first compound 3.16 µM) 13.3%
260 nM: IC50 [4]
45 nM: IC50 (curve of first compound, second compound 10 µM)
< 31.6 nM: IC50 (curve of first compound, second compound 3.16 µM)

— PubChem BioAssay AID2060337 (Molecular Pharmacology Branch, DTP, NCI, 2025)
